Assay type in all cases: in vivo, human
Assay [1] concerns hypertensive patients. Description: Special investigation of combined use of cilnidipine and ARB: degree of the blood pressure controls judged by the doctor (efficacy ratio). Also noted: concentration or dose not given beside the values. The settings on record: named ARB alone, then cilnidipine additionally administered, kind of ARB unchanged; blood pressure control in the 12th week. How it is done: (§1) A special investigation was conducted in various medical centers, compiled, and analyzed to evaluate the safety and availability of the combined use of cilnidipine and at least one angiotensin II receptor blocker.
(§2) The subjects of the investigation were hypertensive patients which were adapted to cilnidipine. Combined administration of cilnidipine and ARB was started for the treatment of hypertension in these patients.
(§3) A prospective continuous investigation method was conducted. Such a method is continuously conducted with the registered cases with the combined administration of cilnidipine (Atelec®) and ARB, until the number of cases reaches the contracted cases for each center.
(§4) Regarding the administration method of cilnidipine, 5 to 10 mg of cilnidipine was orally administered after breakfast once a day. Meanwhile, the amount may increase or decrease depending on patient's age, symptoms, or the like. When the effect is insufficient, the amount can be increased to 20 mg once a day. The dosing period of cilnidipine was set to 12 weeks in principle.
(§5) The following items were tracked during the investigation: patient's background (sex), existence or nonexistence of previous therapeutic agents and the content thereof, targeted blood pressure (systolic BP/diastolic BP), the conditions of administration of cilnidipine and ARB, antihypertensives used in combination (those other than cilnidipine or ARB), clinical course (systolic BP/diastolic BP/heart rate), and occurrence of side-effects. As for the availability of the combined administration, in the 12th week after starting the combined administration, the doctor in attendance judged the degree of the blood pressure controls on a three-point scale of “well-controlled”, “nearly well-controlled” and “poorly-controlled”, referring to the changes in the systolic and diastolic BP. As for the safety and availability analysis for each patient background, Fisher's exact probability test or the X^2 test was used. As for the blood pressure and heart rate, the average value and the standard deviation were calculated for the subjects before the combined administration (within 4 weeks before starting the combined administration), and data after starting the combined administration were determined on each observation day, and analysis was conducted by using a paired t-test. The test was conducted as the two-sided test and less than 5% of the risk rate was regarded as significant. Furthermore, side-effects were compiled based on the naming of preferred terms (PT) of MedDRA/J ver 8.0.
As the index of availability, in the 12th week after starting the combined administration, the doctor in attendance judged the degree of the blood pressure controls on a three-point scale of “well-controlled”, “nearly well-controlled” and “poorly-controlled”.
(1) Among the 2919 cases in the availability analysis, 42 cases in which the degree of the blood pressure controls was not described, and 168 cases which could not be judged, were excluded. In the other 2709 cases, the ratio of number of cases judged as “nearly well-controlled” or higher was calculated as the efficacy ratio. Accordingly, the efficacy ratio of the subject cases in the availability analysis was 84.8% (2298 cases/2709 cases).

In assay [2] the test system is hypertensive patients. As to the kind of experiment: Special investigation of combined use of cilnidipine and ARB: changes in systolic and diastolic blood pressure. How it is done:
as §1, §2, §3, §4, §5
Table 7 and FIG. 2 show the number of cases for which the blood pressure was measured, and the changes in the measured values of systolic BP, diastolic BP, and heart rate were measured at the following time points: before starting the combined administration, 4 weeks, 8 weeks, and 12 weeks after starting the combined administration, and the last measurement, […] administration, n=2919). […] Then, it continued to slowly decrease, and the a stable change was seen up to 12 weeks after the start.

Assay [3] has as its system hypertensive patients. As to the kind of experiment: Special investigation of combined use of cilnidipine and ARB: changes in heart rate. To be noted: for heart rate (beat/min.) last meas., ave.: named ARB + 10 mg cilnidipine after switch from 5 mg amlodipine, 12 weeks or later to the last measurement; for heart rate (beat/min.) last meas.: named ARB + cilnidipine 10 mg, last measurement; for heart rate (beat/min.) last meas. / heart rate (beat/min.) start. admin., ave. / heart rate (beat/min.) start admin.: doses unchanged; for heart rate (beat/min.) 12th wk aft admin.: named ARB + cilnidipine only, 12 weeks after starting the combined administration; for heart rate (beat/min.) start. admin., ave.: on named ARB + 5 mg amlodipine, at switch of amlodipine to 10 mg cilnidipine; for heart rate (beat/min.) start admin.: on named ARB alone (candesartan 8, valsartan 80, losartan 50, telmisartan 40 mg) at start of adding cilnidipine 10 mg; for heart rate (beat/min.) upon start. admin.: on named ARB alone, before cilnidipine was additionally administered. How it is done:
as §1, §2, §3, §4, §5
Table 7 and FIG. 2 show the number of cases for which the blood pressure was measured, and the changes in the measured values of systolic BP, diastolic BP, and heart rate were measured at the following time points: before starting the combined administration, 4 weeks, 8 weeks, and 12 weeks after starting the combined administration, and the last measurement, which was 222.43 days in average from the start of the combined administration, n=2919). […] Then, it continued to slowly decrease, and the a stable change was seen up to 12 weeks after the start.

Where [4] appears, read: named ARB + 10 mg cilnidipine after switch from 5 mg amlodipine, 12 weeks or later to the last measurement.
Setting [5] is: named ARB + cilnidipine 10 mg, doses unchanged, last measurement, 211.43 ± 133.43 day after starting the combined use.
Setting [6] is: named ARB + cilnidipine only, 12 weeks after starting the combined administration.
The mark [7] stands for this setting: on named ARB + 5 mg amlodipine, at switch of amlodipine to 10 mg cilnidipine, doses unchanged.
Where [8] appears, read: on named ARB alone (candesartan 8, valsartan 80, losartan 50, telmisartan 40 mg) at start of adding cilnidipine 10 mg, doses unchanged.
[9] abbreviates: on named ARB alone, before cilnidipine was additionally administered.

The record followed here is patent publication US20080051438A1, “Preventive/Therapeutic Compositions Useful for Treating Cardiovascular Diseases” (priority 2006, published 2008).

With `CCCCC(=O)N(Cc1ccc(-c2ccccc2-c2nnn[nH]2)cc1)[C@H](C(=O)O)C(C)C` [valsartan], the “efficacy ratio (%)” value in assay [1] was determined as 86.0%. Also, in assay [2] (setting [4]), the “diastolic BP” value came to 80.74 mmHg and the “systolic BP” value is reported as 140.67 mmHg. Also, in assay [2] (setting [5]), the “diastolic BP” value was 80.62 ± 10.40 mmHg and the “systolic BP” value is listed as 140.75 ± 15.61 mmHg. Also, in assay [2] (setting [6]), the “diastolic BP” value was determined as 79.31 ± 10.42 mmHg and the “systolic BP” value was determined as 138.32 ± 14.28 mmHg. Moreover, in assay [2] (setting [7]), the “diastolic BP” value turned out to be 89.36 mmHg and the “systolic BP” value is reported as 158.15 mmHg. Further, in assay [2] (setting [8]), the “diastolic BP” value was determined as 91.43 ± 11.20 mmHg and the “systolic BP” value stood at 160.65 ± 16.04 mmHg. Moreover, in assay [2] (setting [9]), the “diastolic BP” value was found to be 91.50 ± 10.58 mmHg and the “systolic BP” value was determined as 160.65 ± 15.20 mmHg. Besides, in assay [3], the “heart rate (beat/min.) last meas., ave.” value was 75.86 beat/min; the “heart rate (beat/min.) last meas.” value was 72.89 ± 10.20 beat/min; the “heart rate (beat/min.) 12th wk aft admin.” value is 71.65 ± 9.38 beat/min; the “heart rate (beat/min.) start. admin., ave.” value is 77.18 beat/min. In addition, in assay [3], the “heart rate (beat/min.) start admin.” value is on record as 74.08 ± 10.41 beat/min and the “heart rate (beat/min.) upon start. admin.” value is 73.22 ± 9.51 beat/min.

Turning to `CCCc1nc2c(C)cc(-c3nc4ccccc4n3C)cc2n1Cc1ccc(-c2ccccc2C(=O)O)cc1` [telmisartan], the “efficacy ratio (%)” value in assay [1] is on record as 88.0%. For the same compound, in assay [2] (setting [4]), the “diastolic BP” value came to 83.08 mmHg and the “systolic BP” value turned out to be 147.23 mmHg. In addition, in assay [2] (setting [5]), the “diastolic BP” value is 80.49 ± 12.78 mmHg and the “systolic BP” value turned out to be 138.89 ± 15.89 mmHg. For the same compound, in assay [2] (setting [6]), the “diastolic BP” value was found to be 80.70 ± 11.71 mmHg and the “systolic BP” value is recorded as 143.64 ± 12.53 mmHg. Also, in assay [2] (setting [7]), the “diastolic BP” value came out at 86.15 mmHg and the “systolic BP” value is recorded as 155.00 mmHg. In addition, in assay [2] (setting [8]), the “diastolic BP” value was determined as 93.52 ± 10.84 mmHg and the “systolic BP” value turned out to be 163.00 ± 17.32 mmHg. In assay [2] (setting [9]), the “diastolic BP” value was 90.94 ± 12.27 mmHg and the “systolic BP” value came out at 161.33 ± 12.62 mmHg. Also, in assay [3], the “heart rate (beat/min.) last meas., ave.” value was determined as 71.00 beat/min; the “heart rate (beat/min.) last meas.” value amounted to 72.12 ± 9.42 beat/min; the “heart rate (beat/min.) 12th wk aft admin.” value is listed as 73.09 ± 9.29 beat/min; the “heart rate (beat/min.) start. admin., ave.” value was 70.00 beat/min. Moreover, in assay [3], the “heart rate (beat/min.) start admin.” value stood at 74.24 ± 11.55 beat/min and the “heart rate (beat/min.) upon start. admin.” value is listed as 74.95 ± 12.70 beat/min.

As to `CCOc1nc2cccc(C(=O)O)c2n1Cc1ccc(-c2ccccc2-c2nnn[nH]2)cc1` [candesartan], the “efficacy ratio (%)” value in assay [1] is reported as 85.5%. Further, in assay [2] (setting [4]), the “diastolic BP” value came out at 78.58 mmHg and the “systolic BP” value was determined as 140.96 mmHg. For the same compound, in assay [2] (setting [5]), the “diastolic BP” value was found to be 79.81 ± 12.72 mmHg and the “systolic BP” value was 141.02 ± 17.36 mmHg. In assay [2] (setting [6]), the “diastolic BP” value was determined as 79.81 ± 12.72 mmHg and the “systolic BP” value is listed as 141.29 ± 17.02 mmHg. Moreover, in assay [2] (setting [7]), the “diastolic BP” value was found to be 82.90 mmHg and the “systolic BP” value was determined as 152.10 mmHg. For the same compound, in assay [2] (setting [8]), the “diastolic BP” value came to 89.59 ± 14.80 mmHg and the “systolic BP” value is on record as 164.98 ± 16.35 mmHg. In assay [2] (setting [9]), the “diastolic BP” value is on record as 89.59 ± 14.80 mmHg and the “systolic BP” value is 163.78 ± 17.52 mmHg. For the same compound, in assay [3], the “heart rate (beat/min.) last meas., ave.” value was determined as 72.58 beat/min; the “heart rate (beat/min.) last meas.” value was determined as 72.47 ± 11.14 beat/min; the “heart rate (beat/min.) 12th wk aft admin.” value was determined as 72.66 ± 11.86 beat/min; the “heart rate (beat/min.) start. admin., ave.” value came to 75.54 beat/min. In assay [3], the “heart rate (beat/min.) start admin.” value was 74.19 ± 10.96 beat/min and the “heart rate (beat/min.) upon start. admin.” value is reported as 75.14 ± 11.48 beat/min.

Turning to `CCCCc1nc(Cl)c(CO)n1Cc1ccc(-c2ccccc2-c2nn[nH]n2)cc1` [losartan], the “efficacy ratio (%)” value in assay [1] is on record as 89.8%. In addition, in assay [2] (setting [4]), the “diastolic BP” value worked out at 79.78 mmHg and the “systolic BP” value was 138.22 mmHg. In addition, in assay [2] (setting [5]), the “diastolic BP” value turned out to be 79.32 ± 9.82 mmHg and the “systolic BP” value came out at 137.74 ± 15.19 mmHg. In assay [2] (setting [6]), the “diastolic BP” value was determined as 79.45 ± 9.20 mmHg and the “systolic BP” value was found to be 139.52 ± 14.43 mmHg. In assay [2] (setting [7]), the “diastolic BP” value was 82.00 mmHg and the “systolic BP” value came out at 150.35 mmHg. Besides, in assay [2] (setting [8]), the “diastolic BP” value is 90.40 ± 10.35 mmHg and the “systolic BP” value is listed as 161.84 ± 16.13 mmHg. Also, in assay [2] (setting [9]), the “diastolic BP” value is listed as 88.67 ± 9.91 mmHg and the “systolic BP” value was found to be 160.78 ± 14.13 mmHg. For the same compound, in assay [3], the “heart rate (beat/min.) last meas., ave.” value stood at 72.44 beat/min; the “heart rate (beat/min.) last meas.” value stood at 73.66 ± 9.49 beat/min; the “heart rate (beat/min.) 12th wk aft admin.” value is reported as 73.95 ± 7.68 beat/min; the “heart rate (beat/min.) start. admin., ave.” value is recorded as 72.00 beat/min. Also, in assay [3], the “heart rate (beat/min.) start admin.” value is recorded as 74.13 ± 8.98 beat/min and the “heart rate (beat/min.) upon start. admin.” value worked out at 73.81 ± 8.29 beat/min.

On to `CCCc1nc(C(C)(C)O)c(C(=O)O)n1Cc1ccc(-c2ccccc2-c2nnn[nH]2)cc1` [olmesartan], for which the “efficacy ratio (%)” value in assay [1] was 100.0%.
